Here are results for 19 molecules from PubChem BioAssay AID330 (DTP/NCI, 2004).

SMILES strings stand for the structures. Several values for one entry are separate records, joined by “and”; a condition that tells them apart may be missing. Equal values may be shown once. Inconclusive results and toxic doses are left out.

The assay relates to P388 leukemia ip, CD2F1 mice, survival T/C. Briefly: NCI In Vivo Anticancer Drug Screen. Data for tumor model P388 Leukemia (intraperitoneal) in CD2F1 (CDF1) mice. To be noted: endpoint: median survival time, higher = longer survival. In outline: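 Mice carrying the transplanted tumor received test compound or vehicle. Survival was recorded in each group, and the value is the treated-group measurement divided by that of the vehicle-treated control group.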

[1] abbreviates: dose: 100.0 mg/kg/injection, schedule: Q01DX009 (ip), vehicle: saline with Tween-80.
Where [2] appears, read: dose: 50.0 mg/kg/injection, schedule: Q01DX009 (ip), vehicle: saline with Tween-80.
Where [3] appears, read: dose: 100.0 mg/kg/injection, schedule: Q01DX009 (ip), vehicle: saline.
The mark [4] stands for this setting: dose: 200.0 mg/kg/injection, schedule: Q01DX009 (ip), vehicle: saline.
Setting [5] is: dose: 50.0 mg/kg/injection, schedule: Q01DX009 (ip), vehicle: Klucel (hydroxypropylcellulose) (HPC).
[6] abbreviates: dose: 50.0 mg/kg/injection, schedule: Q01DX005 (ip), vehicle: saline with Tween-80.

In the case of `SC(Cc1nc2ccccc2[nH]1)c1nc2ccccc2[nH]1` (stereo not given), the T/C by setting is: (dose: 100.0 mg/kg/injection, schedule: Q01DX001 (ip), vehicle: Klucel + Tween-80) 93 % of control; (dose: 200.0 mg/kg/injection, schedule: Q01DX001 (ip), vehicle: Klucel + Tween-80) 93 % of control; (dose: 400.0 mg/kg/injection, schedule: Q01DX001 (ip), vehicle: Klucel + Tween-80) 100 % of control.

With `CC(C)c1cc(C=C2C(=O)c3ccccc3C2=O)cc(C(C)C)c1O`, the T/C was 100 % of control (dose: 100.0 mg/kg/injection, schedule: Q04DX002 (ip), vehicle: saline); 100 % of control (dose: 200.0 mg/kg/injection, schedule: Q04DX002 (ip), vehicle: saline); 97 % of control (dose: 400.0 mg/kg/injection, schedule: Q04DX002 (ip), vehicle: saline).

For the molecule `C=CC(=O)NCNC(=O)C=C`, the T/C is 172 % of control under setting [1]; 118 % of control (dose: 132.0 mg/kg/injection, schedule: Q04DX003 (ip), vehicle: saline with Tween-80); 159 % of control (dose: 200.0 mg/kg/injection, schedule: Q04DX003 (ip), vehicle: saline sonified); 181 % of control (dose: 300.0 mg/kg/injection, schedule: Q04DX003 (ip), vehicle: saline with Tween-80).

Regarding `CCCCCCCCOC(=O)Nc1ccc(OCC)cc1`, the T/C by setting is: (dose: 0.75 mg/kg/injection, schedule: Q01DX009 (ip), vehicle: saline with Tween-80) 92 % of control; (dose: 1.5 mg/kg/injection, schedule: Q01DX009 (ip), vehicle: saline with Tween-80) 97 % of control; (dose: 3.0 mg/kg/injection, schedule: Q01DX009 (ip), vehicle: saline with Tween-80) 104 % of control.

As for `COc1ccc(OC)c(NC(=O)Oc2ccc(C#N)cc2)c1`, the T/C (dose: 60.0 mg/kg/injection, schedule: Q01DX005 (ip), vehicle: saline with Tween-80) was 119 % of control; the T/C (dose: 120.0 mg/kg/injection, schedule: Q01DX005 (ip), vehicle: saline with Tween-80) was 107 % of control; the T/C (dose: 240.0 mg/kg/injection, schedule: Q01DX005 (ip), vehicle: saline with Tween-80) was 111 % of control.

As to `CNc1ncnc2ccccc12`, the T/C was 100 % of control (dose: 25.0 mg/kg/injection, schedule: Q01DX009 (ip), vehicle: saline with Tween-80); 95 % of control under setting [2]; 89 % of control under setting [1].

Take `O=C(Nc1ccccc1)Sc1nnc2c3ccccc3c3ccccc3c2n1`: the T/C was 100 % of control under setting [2]; 101 % of control under setting [1]; 99 % of control (dose: 200.0 mg/kg/injection, schedule: Q01DX009 (ip), vehicle: saline with Tween-80).

As to `O=C1NCCCC1(c1ccccc1)c1ccccc1`, the T/C (dose: 50.0 mg/kg/injection, schedule: Q01DX009 (ip), vehicle: saline) was 98 % of control; the T/C under setting [3] is 102 % of control; the T/C under setting [4] is 97 % of control.

`Oc1c(O)c(Br)c(Br)c(Br)c1Br`: the T/C is 107 % of control and 95 % of control under setting [3]; 111 % of control under setting [4].

With `C=CC12CCCCC1CCC(=O)C2` (stereo not given), the T/C under setting [5] was 111 % of control.

With `CC(=O)Nc1nnc(-c2cc(=O)c3cc(C)ccc3o2)s1`, the T/C was 92 % of control under setting [6]; 91 % of control (dose: 100.0 mg/kg/injection, schedule: Q01DX005 (ip), vehicle: saline with Tween-80); 90 % of control (dose: 200.0 mg/kg/injection, schedule: Q01DX005 (ip), vehicle: saline with Tween-80).

Take `OCCN1CCN(CCCN2c3cscc3Sc3ccc(Cl)cc32)CC1`: the T/C runs as follows: (dose: 50.0 mg/kg/injection, schedule: Q01DX005 (ip), vehicle: Klucel (hydroxypropylcellulose) (HPC)) 94 % of control and 95 % of control; (dose: 100.0 mg/kg/injection, schedule: Q01DX005 (ip), vehicle: Klucel (hydroxypropylcellulose) (HPC)) 101 % of control.

Consider `CC(=O)OCC1OC(S[As](C)CCO)C(OC(C)=O)C(OC(C)=O)C1OC(C)=O` (stereo not given), for which the T/C reads like this: (dose: 12.5 mg/kg/injection, schedule: Q01DX009 (ip), vehicle: Klucel (hydroxypropylcellulose) (HPC)) 103 % of control and 109 % of control; (dose: 25.0 mg/kg/injection, schedule: Q01DX009 (ip), vehicle: Klucel (hydroxypropylcellulose) (HPC)) 102 % of control and 113 % of control; under setting [5], 103 % of control and 117 % of control and 122 % of control; (dose: 100.0 mg/kg/injection, schedule: Q01DX009 (ip), vehicle: Klucel (hydroxypropylcellulose) (HPC)) 111 % of control and 116 % of control; (dose: 200.0 mg/kg/injection, schedule: Q01DX009 (ip), vehicle: Klucel (hydroxypropylcellulose) (HPC)) 108 % of control.

With `COc1cc2c(c(OC)c1OC)-c1ccc(=O)c(OC)cc1[C@@H](N(C)C=O)CC2`, the T/C runs as follows: (dose: 2.5 mg/kg/injection, schedule: Q01DX009 (ip), vehicle: Klucel (hydroxypropylcellulose) (HPC)) 105 % of control; (dose: 5.0 mg/kg/injection, schedule: Q01DX009 (ip), vehicle: Klucel (hydroxypropylcellulose) (HPC)) 112 % of control; (dose: 10.0 mg/kg/injection, schedule: Q01DX009 (ip), vehicle: Klucel (hydroxypropylcellulose) (HPC)) 100 % of control; (dose: 20.0 mg/kg/injection, schedule: Q01DX009 (ip), vehicle: Klucel (hydroxypropylcellulose) (HPC)) 114 % of control; (dose: 40.0 mg/kg/injection, schedule: Q01DX009 (ip), vehicle: Klucel (hydroxypropylcellulose) (HPC)) 114 % of control.

Take `C[n+]1c(-c2cccc3ccccc23)c2cc([N+](=O)[O-])ccc2c2ccccc21`: the T/C reads like this: (dose: 4.0 mg/kg/injection, schedule: Q01DX009 (ip), vehicle: Klucel (hydroxypropylcellulose) (HPC)) 114 % of control; (dose: 8.0 mg/kg/injection, schedule: Q01DX009 (ip), vehicle: Klucel (hydroxypropylcellulose) (HPC)) 115 % of control; (dose: 8.0 mg/kg/injection, schedule: Q04DX003 (ip), vehicle: Klucel (hydroxypropylcellulose) (HPC)) 98 % of control; (dose: 16.0 mg/kg/injection, schedule: Q01DX009 (ip), vehicle: Klucel (hydroxypropylcellulose) (HPC)) 119 % of control; (dose: 16.0 mg/kg/injection, schedule: Q04DX003 (ip), vehicle: Klucel (hydroxypropylcellulose) (HPC)) 108 % of control; (dose: 32.0 mg/kg/injection, schedule: Q01DX009 (ip), vehicle: Klucel (hydroxypropylcellulose) (HPC)) 114 % of control. The T/C runs as follows: (dose: 32.0 mg/kg/injection, schedule: Q04DX003 (ip), vehicle: Klucel (hydroxypropylcellulose) (HPC)) 114 % of control; (dose: 64.0 mg/kg/injection, schedule: Q04DX003 (ip), vehicle: Klucel (hydroxypropylcellulose) (HPC)) 106 % of control.

With `CC(=O)/C=C\c1ccc(Cl)cc1`, the T/C was 100 % of control under setting [2]; 91 % of control under setting [1]; 113 % of control (dose: 100.0 mg/kg/injection, schedule: Q04DX003 (ip), vehicle: saline with Tween-80); 98 % of control (dose: 200.0 mg/kg/injection, schedule: Q04DX003 (ip), vehicle: saline with Tween-80); 91 % of control (dose: 400.0 mg/kg/injection, schedule: Q04DX003 (ip), vehicle: saline with Tween-80).

As to `C=C1CC[C@H]2C(C)=CC[C@H]3C(=C)C(=O)O[C@@H]3[C@@H]12`, the T/C (dose: 5.0 mg/kg/injection, schedule: Q01DX009 (ip), vehicle: saline with Tween-80) is 90 % of control; the T/C (dose: 10.0 mg/kg/injection, schedule: Q01DX009 (ip), vehicle: saline with Tween-80) is 91 % of control; the T/C (dose: 20.0 mg/kg/injection, schedule: Q01DX009 (ip), vehicle: saline with Tween-80) was 97 % of control; the T/C (dose: 40.0 mg/kg/injection, schedule: Q01DX009 (ip), vehicle: saline with Tween-80) is 95 % of control; the T/C (dose: 100.0 mg/kg/injection, schedule: Q04DX002 (ip), vehicle: saline with Tween-80) is 107 % of control; the T/C (dose: 200.0 mg/kg/injection, schedule: Q04DX002 (ip), vehicle: saline with Tween-80) is 112 % of control. Also, the T/C (dose: 400.0 mg/kg/injection, schedule: Q04DX002 (ip), vehicle: saline with Tween-80) was 102 % of control.

Consider `C=C1CCC(=O)NC1=O`, for which the T/C was 105 % of control (dose: 6.25 mg/kg/injection, schedule: Q01DX005 (ip), vehicle: saline); 102 % of control (dose: 12.5 mg/kg/injection, schedule: Q01DX005 (ip), vehicle: saline); 99 % of control (dose: 25.0 mg/kg/injection, schedule: Q01DX005 (ip), vehicle: saline); 116 % of control under setting [6].

For `CCOCc1cn[nH]n1`, the T/C reads like this: (dose: 60.0 mg/kg/injection, schedule: Q01DX005 (ip), vehicle: saline) 100 % of control; (dose: 120.0 mg/kg/injection, schedule: Q01DX005 (ip), vehicle: saline) 100 % of control; (dose: 240.0 mg/kg/injection, schedule: Q01DX005 (ip), vehicle: saline) 104 % of control.
